Measurements published in patent US8785499B2 (priority 2009, dated 2014).

Tests used:
baNadD = baNadD (Bacillus anthracis, UniProt C3L5T6); assay: biochemical; format: biochemical
ecNadD = ecNadD (Escherichia coli (strain K12), UniProt P0A752); assay: biochemical; format: biochemical

baNadD, sequence (C3L5T6 whole entry, looked up): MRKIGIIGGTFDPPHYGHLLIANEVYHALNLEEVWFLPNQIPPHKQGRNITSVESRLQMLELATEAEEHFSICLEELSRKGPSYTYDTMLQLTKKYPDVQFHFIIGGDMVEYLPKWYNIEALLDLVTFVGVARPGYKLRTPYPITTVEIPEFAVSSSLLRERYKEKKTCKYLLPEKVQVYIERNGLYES

Structure (SMILES)	[…]. anthracis (baNadD)	[…]. coli (ecNadD)
NC(=S)NNC(=O)c1ccccc1C(=O)O [compound 136]	64%	6%
O=C(Nc1ncccc1Cl)c1ccc(Br)cc1 [compound 137]	7%	6%
COc1ccc(-c2csc(N)n2)cc1[N+](=O)[O-] [compound 138]	54%	6%
COc1ccc(S(=O)(=O)Nc2ccc(C(N)=O)cc2)cc1Cl [compound 139]	0%	6%
NS(=O)(=O)c1ccc2nc(NC(=O)CCc3ccccc3)sc2c1 [compound 140]	0%	6%
O=C(O)c1ccc(-n2cccn2)cc1 [compound 141]	17%	6%
O=S(=O)(NCCCc1ccccc1)c1cccc2nsnc12 [compound 142]	0%	6%
c1ccc2[nH]c(SCc3cn4ccsc4n3)nc2c1 [compound 143]	2%	6%
CC1=C(C)CC(C(=O)Nc2ccc(I)cc2)C(C(=O)O)C1 (stereo not drawn) [compound 144]	65%	6%
O=C(Cn1cnc2ccccc2c1=O)Nc1nccs1 [compound 145]	0%	6%
Cc1nnc(SCC(=O)Nc2ccc(Cl)cn2)[nH]c1=O [compound 146]	11%	5%
Cc1ccc(C(=O)N/N=C/c2ccc(O)c(I)c2)cn1 [compound 147]	12%	5%
O=C(O)/C=C/c1ccncc1 [compound 148]	4%	5%
CCS(=O)(=O)n1nc(-c2ccc(OC)cc2)nc1N [compound 149]	0%	5%
CSc1ccc(CNc2ccc(S(N)(=O)=O)cc2)cc1 [compound 150]	0%	5%
O=C(/C=C/c1ccoc1)c1ccccc1O [compound 151]	0%	5%
O=C(O)C1C2C=CC(C2)C1C(=O)Nc1ccc(Cl)c(Cl)c1 (stereo not drawn) [compound 152]	0%	5%
O=C(O)c1cc(NS(=O)(=O)c2cccc3nsnc23)cc(C(=O)O)c1 [compound 153]	0%	5%
O=C(O)CNC(=S)N(Cc1ccccc1)Cc1cccs1 [compound 154]	0%	5%
Cc1ccc2nc(NC(=S)NC(=O)c3cccs3)sc2c1 [compound 155]	26%	5%
O=C(O)c1ccccc1C(=O)c1cccs1 [compound 156]	22%	5%
NS(=O)(=O)c1ccc(NCc2cccc(Cl)c2Cl)cc1 [compound 157]	0%	5%
CSc1sc(C(=O)O)c(I)c1S(=O)(=O)C(C)C [compound 158]	36%	4%
O=C(O)C1=C(c2cc([N+](=O)[O-])ccc2O)N=S=N1 [compound 159]	1%	4%
Cc1ccc(-c2nnc(SCC(=O)O)[nH]2)cc1 [compound 160]	0%	4%

Structure (SMILES)	[…]. anthracis (baNadD)	[…]. coli (ecNadD)
N=C(NNS(=O)(=O)c1ccccc1)c1ccccn1 [compound 161]	68%	4%
Cc1ccc(S(=O)(=O)/N=C(\N)c2ccc(F)cc2)cc1 [compound 162]	0%	4%
CS(=O)(=O)N(CC(=O)Nc1ccccc1Br)c1ccc(Cl)cc1 [compound 163]	54%	4%
Nc1cc(=O)[nH]c(SCC(=O)Nc2ccc(S(N)(=O)=O)cc2)n1 [compound 164]	32%	4%
O=[N+]([O-])c1cc(Cl)ccc1NCCCNS(=O)(=O)c1ccccc1 [compound 165]	0%	4%
O=C(O)c1cccc(-n2nc(O)ccc2=O)c1 [compound 166]	19%	4%
O=C(CSc1nc2ccccc2c(=O)[nH]1)NCc1ccco1 [compound 167]	0%	4%
O=C(O)CN1C(=O)CC(Cc2ccc(Cl)cc2)C1=O (stereo not drawn) [compound 168]	0%	3%
O=C(O)CSc1nc2ccccc2n1CC(=O)O [compound 169]	0%	3%
COc1ccc(S(=O)(=O)Nc2ccc(CC#N)cc2)cc1C [compound 170]	0%	3%
O=C(NNC(=O)C1CC=CCC1C(=O)O)c1cccc([NH2+][O-])c1 (stereo not drawn) [compound 171]	24%	3%
O=C(O)c1ccc(/C=N/NC(=O)c2cc3cc(Br)ccc3o2)cc1 [compound 172]	32%	3%
Nc1nc(SCC(=O)NCC2CCCO2)n[nH]1 (stereo not drawn) [compound 173]	0%	3%
O=C(O)c1cccc(COc2ccc(CO)cc2Cl)c1 [compound 175]	0%	3%
O=C(O)CSc1nc(=O)cc(-c2ccccc2)[nH]1 [compound 176]	0%	3%
O=C(CSC(=O)c1ccccc1)Nc1ccc(Cl)cn1 [compound 177]	21%	3%
CS(=O)(=O)NCCOc1ccc(S(=O)(=O)NCc2ccccc2)cc1 [compound 179]	0%	3%
O=C(O)c1cccc(CSc2ncccn2)c1 [compound 180]	15%	3%
O=C(O)c1ccc(OCOc2ccc(C(=O)O)c(C(=O)O)c2)cc1C(=O)O [compound 181]	56%	3%
CC(=NNC(=O)COc1ccc(C)cc1)C(=O)O [compound 182]	14%	3%
Nc1nnc(-c2cc(-c3ccc(Cl)cc3)on2)o1 [compound 183]	7%	3%
Cc1ccccc1N1CC(C(=O)O)CC1=O (stereo not drawn) [compound 184]	16%	2%
O=C(O)c1[nH]c2ccc(Cl)cc2c1-c1ccccc1 [compound 185]	40%	2%
O=C(Nc1ccc([N+](=O)[O-])cn1)c1sc2ccccc2c1Cl [compound 186]	9%	2%
C=CCSc1nnc(-c2cc(Br)ccc2N)c(O)n1 [compound 187]	0%	2%

Structure (SMILES)	[…]. anthracis (baNadD)	[…]. coli (ecNadD)
O=S(=O)(NCc1cccs1)c1ccc(Br)cc1 [compound 188]	0%	1%
O=C(CSc1n[nH]c(=O)[nH]c1=O)N/N=C\c1ccc(Br)cc1 [compound 189]	0%	1%
CN1CCN(C(=O)c2ccccc2C(=O)O)CC1 [compound 190]	0%	1%
N/N=C/c1c(Cl)cccc1Cl [compound 191]	5%	1%
COc1ccc(N(CC(=O)O)S(=O)(=O)c2ccc(C)cc2)cc1Cl [compound 192]	0%	1%
O=C(O)CCSCCc1ccncc1 [compound 193]	18%	1%
O=C1NC(=O)/C(=C\c2ccc(O)c(I)c2)N1 [compound 194]	62%	1%
O=C(NNC(=O)c1ccccc1C(=O)O)c1ccc(Cl)cc1 [compound 195]	0%	1%
COCCNS(=O)(=O)c1ccc2c(c1)CCN2C(=O)CCC(=O)O [compound 196]	52%	1%
O=C(CSc1nc2ccccc2[nH]1)Nc1nncs1 [compound 197]	34%	0%
N=C1NC(=O)C(Cc2ccccc2Cl)S1 (stereo not drawn) [compound 198]	7%	0%
Cc1cc(S(=O)(=O)Nc2cccc(C(=O)O)c2)ccc1Cl [compound 199]	0%	0%
CC(=NNC(=O)CCC(=O)Nc1ccc(Br)cc1)c1ccc2ccccc2c1 [compound 200]	76%	0%
Cc1ccc(-c2nnc(SCC(=O)O)o2)cc1 [compound 201]	25%	0%
O=C(N/N=C/c1ccccc1Cl)c1cccnc1 [compound 202]	32%	0%
O=S(=O)(Nc1ccc(Br)c(Cl)c1)c1cccs1 [compound 203]	0%	0%
NS(=O)(=O)c1ccc(NC(=O)CSc2ncn(-c3ccccc3)n2)cc1 [compound 205]	40%	0%
NS(=O)(=O)c1ccc(NC(=S)NCCc2c[nH]c3ccccc23)cc1 [compound 206]	25%	0%
O=C(O)CCCC(=O)Nc1nc2ccccc2s1 [compound 207]	7%	0%
CSc1cccc(NS(=O)(=O)c2ccc(F)cc2)c1 [compound 208]	0%	0%
O=C(O)c1cc(NC(=O)c2ccc(Cl)cc2Cl)cc(C(=O)O)c1 [compound 209]	0%	0%
Cc1ccc(S(=O)(=O)/N=C(/NCC(=O)O)c2ccccc2)cc1 [compound 211]	42%	0%
CCC(NS(=O)(=O)c1ccc(OC)cc1)C(=O)O (stereo not drawn) [compound 212]	32%	0%
NS(=O)(=O)c1ccc(CCNC(=O)c2ccc([NH2+][O-])cc2)cc1 [compound 213]	54%	0%
NS(=O)(=O)c1ccc(/N=C/c2ccc(Br)cc2)cc1 [compound 214]	0%	0%
